What was measured:
monoamine oxidase A = target: T1, monoamine oxidase A (Homo sapiens, UniProt P21397); conditions: proposed mechanism of action; cited from earlier work
T1 sequence (P21397 1-527): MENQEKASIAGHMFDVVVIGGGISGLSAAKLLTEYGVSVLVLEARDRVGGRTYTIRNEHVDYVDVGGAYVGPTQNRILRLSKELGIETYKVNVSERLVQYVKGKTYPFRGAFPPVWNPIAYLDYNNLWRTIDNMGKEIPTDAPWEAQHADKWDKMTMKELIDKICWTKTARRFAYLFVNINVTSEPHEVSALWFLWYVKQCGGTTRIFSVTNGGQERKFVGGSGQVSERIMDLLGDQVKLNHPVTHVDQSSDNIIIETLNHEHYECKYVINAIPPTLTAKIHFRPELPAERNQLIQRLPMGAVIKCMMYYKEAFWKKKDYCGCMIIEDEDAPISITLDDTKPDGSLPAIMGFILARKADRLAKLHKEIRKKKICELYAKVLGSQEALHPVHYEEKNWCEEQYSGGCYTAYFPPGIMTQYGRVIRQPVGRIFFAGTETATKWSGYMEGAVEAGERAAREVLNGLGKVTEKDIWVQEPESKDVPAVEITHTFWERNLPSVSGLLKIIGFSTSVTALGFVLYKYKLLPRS

cholinergic system = conditions: cited from earlier work
dopaminergic system = conditions: cited from earlier work
[1] = tested on: 5-hydroxytryptamine reuptake; conditions: cited from earlier work
[2] = tested on: α-CD3 stimulated peripheral blood mononuclear cells; test: Proliferation of anti-CD3 stimulated PBMCs/T cells ([3H]-thymidine incorporation); type: cell-based
Protocol: Peripheral blood mononuclear cells (PBMCs) were isolated by Ficoll-gradient centrifugation from peripheral blood. 1×10^6 PBMCs/ml were re-suspended in RPMI/10% fetal calf serum (FCS) in 96-well plates in a concentration of 2×10^5 cells/well. […] As positive and negative controls PBMCs were used, which were stimulated by anti-CD3-antibody and non-stimulated PBMCs, respectively. The final concentration of the solvent DMSO was 0.1% in all examined wells. After two further days of incubation the cells were incubated with 1 μCi per well [^3H]-thymidine for 18 hours. The cells were then recovered on glass fibre filters by using a Micro 96 Harvester (Skatron Instruments, Lier, Norway). The incorporated radioactivity was analysed with a Packard Matrix 9600 Counter (Can berra Packard, Schwadorf, Austria). The experiments were carried out with the blood of three different donors. […] All other values were divided by the 100% value to obtain the relative percentage of proliferation.

noradrenaline reuptake = conditions: cited from earlier work
TNFα = test: Secretion of TNFα of LPS stimulated THP-1 cells (ELISA); type: cell-based; conditions: 50 ng/ml LPS, six hours, concentration of 10 μmol/l and higher
Protocol: After stimulation with 50 ng/ml LPS the release of TNFα was determined.
After 2 h cells were stimulated with 50 ng/ml LPS. Six hours after LPS addition, culture supernatants were collected. TNFα concentrations were measured using an enzyme linked immunosorbent assay according to manufacturers protocol (R&D systems, #DTA00C). The TNFα concentrations reached after LPS stimulation without further treatment was set to 100%.

[3] = DTH (oxazolone) mouse ear swelling model; type: in vivo; conditions: topical 4%, 1%, 0.1% and 0.01% in acetone/olive oil, compared to placebo control
Protocol: A mixture of acetone/olive oil (4:1 vol/vol) is used as vehicle. Ear thickness is measured before start of the treatment (day 0), before challenge (day 6), and 24 h after challenge (d7, ear swelling response) (instrumentation e.g. Mitutoyo-Messgeräte GmbH). In addition, at the end of the experiment ear weights are determined by weighing 8 mm punch biopsies taken from both ears of each individual animal.

HaCaT keratinocytes = test: Proliferation of HaCaT keratinocytes (BrDU incorporation); type: cell-based; conditions: Homo sapiens, 48 hours treatment, relative to FCS stimulated positive control, mean of at least four experiments
Protocol: As a negative control cells were incubated with KBM.
For this purpose 5×10^3 HaCaT keratinocytes were seeded into 60 wells of a 96 well-plate in 200 μl KBM/10% FCS each and incubated for 24 hours at 37° C. […] At the end of the second incubation period the medium was removed and cell proliferation was determined by BrDU incorporation (Roche, #1 669 915) according to the manufacturer's instructions. […] All other values were divided by the 100% value to obtain the relative percentage of proliferation. […] At least four independent experiments were performed.

[4] = tested on: transplanted human psoriatic skin biopsies; test: Human psoriatic skin transplant SCID mouse model; type: in vivo, SCID mice; conditions: 50 mg/kg daily intraperitoneal, four weeks, in comparison to vehicle control animals
Protocol: SCID mice were transplanted with human psoriatic skin biopsies. Two weeks after surgery therapy started. […] After four weeks of therapy the mice were sacrificed and biopsies were taken. 4 μm slices of the biopsies were stained with Masson trichrom. Epidermal areas were calculated. […] Treatment started two weeks after the transplantation. […] For therapy, 300 μl of a 5 mg/ml solution was daily injected intraperitonally (=50 mg/kg). The control group was injected in the same way with 300 μl vehicle. After four weeks the animals were sacrificed. The biopsies were removed, histologically stained (Masson trichrom) and examined for changes of the epidermal area.

Cc1ccc2c(c1)c1c3n2CCNC3CCC1 (centres unmarked) [Pirlindole, 2,3,3a,4,5,6-hexahydro-8-methyl-1H-pyrazino[3,2,1-jk]carbazole]
Inhibition of monoamine oxidase A (monoamine oxidase A): selective and reversible inhibition | Effect on the cholinergic system (cholinergic system): no effect | Effect on the dopaminergic system (dopaminergic system): no effect | Effect on 5-hydroxytryptamine reuptake [1]: inhibitory effect | IC50 ([2]; PBMC, 10 μg/ml soluble anti-CD3-antibody, [3H]-thymidine, three donors, mean): 16 µM | Inhibitory effect on proliferation in vitro ([2]; at a concentration of Pirlindole of 10 μmol/l (examples 2, 3)): inhibitory effect | Effect on noradrenaline reuptake (noradrenaline reuptake): inhibitory effect | Release of TNFα (TNFα): clear inhibition | Parameters of inflammation severity (ear weight, ear thickness) [3]: improvement of one or more parameters of inflammation severity | IC50 (HaCaT keratinocytes): 47 µM | Epidermal area of the transplants [4]: clearly decreased

Source: US20080254106A1 (SWITCH BIOTECH AG, priority 2004, published 2008)
